What all share (experiment): inhibition of tumor establishment in SCID mice
Common to all, as to type: in vivo

The test system of one experiment is 15A tumors. Here is the method:
(§1) Establishment and passaging of the xenotransplanted tumors was performed as described (Douglas et al., 1998, Cytometry 32:57-65; Kawamata et al., 1998, Blood 91:561-569; Pepper et al., 1998, Leuk. Res. 22:439-444). To deplete macrophages and NK cells and to enhance tumor engraftment, SCID mice were injected intraperitoneally with 30-45 milligrams per kilogram of etoposide (Bedford Laboratories, Bedford, Ohio) 4 days prior to implantation of the human EBV^+ B-cell lines (Visonneau et al., 1998, Am. J. Path. 152:1299-1311). Ten million cells of each line employed (see results) were inoculated into mice either intraperitoneally or subcutaneously in 200 microliters of Dulbecco's Phosphate Buffered Saline (DPBS; BioWhittaker, Walkersville, Md.). Ascites or palpable subcutaneous tumors developed 3-5 weeks after cell injection.
(§2) Tumor treatment and growth inhibition experiments were performed using fragments of the established subcutaneous tumors (Pasqualucci et al., 1995, Blood 85:2139-2146, Visonneau et al., 1998, Am. J. Path. 152:1299-1311). For this purpose, mice were anesthetized with KETALAR™ (ketamine, Parke-Davis, Morris Plains, N.J.) by intraperitoneal injection of 100 milligrams per kilogram. Next, the primary tumor was aseptically removed and freed from necrotic, fatty and connective tissue and divided into small pieces of roughly equal size and 3-4 pieces per mouse were injected subcutaneously. Treatment of established tumors with SDZ RAD was started when tumors reached 5 millimeters diameter. In growth inhibition experiments, the treatment was initiated 3 days prior to the tumor implantation. Tumor volume in all experiments was determined from the equation: volume=0.4ab^2, where a and b designate respectively long and short diameter of the tumor. The transplanted mice were monitored for tumor growth for a period of up to 2 months. Five milligrams per kilogram of SDZ RAD was administered once a day by gavage as described (Schuurman et al., 1997, Transplantation 64:32-5; Schuler et al. 1997, Transplantation 64:36-42).
(§3) Mice were sacrificed by exposure to FORANE™ (isoflurane, Ohmeda, Liberty Place, N.J.) on day 29 in the drug toxicity study, on day 40-55 in the tumor growth inhibition study or when tumors achieved approximately 2 centimeter diameter, or when ulceration of the skin, signs of severe respiratory distress, weakness, or lethargy appeared. Complete autopsy was performed on all mice at the end of the study regardless of their appearance. Tumor and internal organs (spleen, liver, lung, heart, kidney, small and large intestines, femoral bone for bone marrow) were fixed in 10% (v/v) formalin, embedded in paraffin, cut into […] sections, transferred to glass slides, and stained with hematoxylin and eosin. Representative tumor fragments were stained immunohistochemically by standard streptavidin-biotin complex technique using commercially available reagents (Research Genetics, Huntsville, Ala.), antibodies: anti-CD20 (L-26) and LMP-1 (both from DAKO, Carpinteria, Calif.) and Ki67 (mib1; Immunotech, Westbrook, Me.). EBV-encoded RNA (EBER-1), and detected using commercially available reagents.
(§4) Because SDZ RAD, when used as an immunosuppressive agent, is administered chronically to transplant patients, its main therapeutic impact on PTLDs may be to inhibit their development rather than to alleviate the clinically symptomatic cases. To test if SDZ RAD can inhibit establishment of PTLD-like lymphomas, daily treatment with 5 milligrams per kilogram body weight of the drug was initiated 3 days prior to the tumor implantation. […] On day 25, the treated tumors measured in average 38 cubic millimeters, the untreated approximately 1940 cubic millimeters. On day 45, the median volume of the treated tumor was 480 cubic millimeters. In 20A tumors, 6 out of 11 tumors were not detectable on day 25; the median volume of the remaining 5 was 20 cubic millimeters. The average untreated tumor measured 210 cubic millimeters on that day. […]

In another experiment the test system is 20A tumors. Here is the method:
as §1, §2, §3, §4

The next experiment has as its system A1 tumors. Here is the method:
as §1, §2, §3, §4

Where [1] appears, read: day 25, treatment from 3 days prior to implantation.

The structures appear in SMILES notation. “And” between values parts separate entries of the source, which are not always exact repeats. Equal entries are not always repeated. Bounds are passed on as bounds.

With `CO[C@H]1C[C@@H]2CC[C@@H](C)[C@@](O)(O2)C(=O)C(=O)N2CCCC[C@H]2C(=O)O[C@H]([C@H](C)C[C@@H]2CC[C@@H](OCCO)[C@H](OC)C2)CC(=O)[C@H](C)/C=C(\C)[C@@H](O)[C@@H](OC)C(=O)[C@H](C)C[C@H](C)/C=C/C=C/C=C/1C` [SDZ RAD, 40-O-(2-hydroxy)ethyl-rapamycin], in the experiment on 15A tumors (5 milligrams per kilogram body weight daily, initiated 3 days prior to tumor implantation), the “effect on tumor growth and establishment” value is reported as “profoundly delayed the tumor growth, but was unable to inhibit the tumor establishment”. In addition, in the experiment on 15A tumors (setting [1]), the “average treated tumor volume” value stood at 38 cubic millimeters. Besides, the “median volume of the treated tumor” value in the experiment on 15A tumors (day 45, treatment from 3 days prior to implantation) is 480 cubic millimeters. For the same compound, the “treated mice with no signs of tumor (establishment completely inhibited)” value with 20A tumors (11 treated mice, microscopic evaluation revealed no malignant cells) was “Five and 5/11”. The “median volume of the remaining 5 tumors” value in the experiment with 20A tumors (day 25) was found to be 20 cubic millimeters. In the experiment with 20A tumors (setting [1]), the tumors not detectable is recorded as 6 out of 11. For the same compound, the “volume of treated tumors (none exceeded)” value in the experiment on 20A tumors (day 45) is at most 150 cubic millimeters. The “tumor detection in the 8 treated mice” value in the experiment with A1 tumors (day 29, treatment from 3 days prior to implantation) is “no tumor could be detected”. Further, in the experiment on A1 tumors (day 53, 8 treated mice), the “mice with no evidence of tumor (establishment completely inhibited)” value was 5 and 5/8; the “mice with small, histologically confirmed lymphomas” value worked out at 3. For the same compound, the “volume of the small lymphomas” value in the experiment on A1 tumors (day 53, the 3 mice with lymphoma) is below 5 cubic millimeters.

The record behind these values is patent US8778961B2, “O-methylated rapamycin derivatives for alleviation and inhibition of lymphoproliferative disorders” (The Trustees of the University of Pennsylvania, priority 2000, dated 2014).
